Experimental data published in ChEMBL document CHEMBL2203155, “Structure-based discovery of C-2 substituted imidazo-pyrrolopyridine JAK1 inhibitors with improved selectivity over JAK2” (Bioorg Med Chem Lett, 2012).
≈ marks a conversion by molar mass, not a printed value.

What was measured:
[1] = biological target: T1, Tyrosine-protein kinase JAK1 (Homo sapiens, UniProt P23458); assay type: cell-based, TF-1
[2] = Selectivity ratio of Ki for JAK2 kinase domain to Ki for JAK1 kinase domain
[3] = biological target: T1, Tyrosine-protein kinase JAK1
[4] = Oral bioavailability in Sprague-Dawley rat at 2 mg/kg administered as suspension; assay type: ADME, organism-based; conditions: in vivo
[5] = AUC in Sprague-Dawley rat at 2 mg/kg, po administered as suspension; assay type: ADME, organism-based; design: dose 2 mg/kg, route oral; conditions: plasma
[6] = Half life in Sprague-Dawley rat at 0.4 mg/kg, iv administered as bolus dose; assay type: ADME, organism-based; design: dose 0.4 mg/kg, route intravenous; conditions: in vivo
[7] = Volume of distribution at steady state in Sprague-Dawley rat at 0.4 mg/kg, iv administered as bolus dose; assay type: ADME, organism-based; design: dose 0.4 mg/kg, route intravenous; conditions: in vivo, read-out: Vdss
[8] = Clearance in Sprague-Dawley rat at 0.4 mg/kg, iv administered as bolus dose; assay type: ADME, organism-based; design: dose 0.4 mg/kg, route intravenous; conditions: in vivo
[9] = biological target: Macrophage colony-stimulating factor 1 receptor (Homo sapiens) (UniProt P07333); test: Inhibition of CSF1R at 0.1 uM
Macrophage colony-stimulating factor 1 receptor (Homo sapiens), sequence (P07333 whole entry): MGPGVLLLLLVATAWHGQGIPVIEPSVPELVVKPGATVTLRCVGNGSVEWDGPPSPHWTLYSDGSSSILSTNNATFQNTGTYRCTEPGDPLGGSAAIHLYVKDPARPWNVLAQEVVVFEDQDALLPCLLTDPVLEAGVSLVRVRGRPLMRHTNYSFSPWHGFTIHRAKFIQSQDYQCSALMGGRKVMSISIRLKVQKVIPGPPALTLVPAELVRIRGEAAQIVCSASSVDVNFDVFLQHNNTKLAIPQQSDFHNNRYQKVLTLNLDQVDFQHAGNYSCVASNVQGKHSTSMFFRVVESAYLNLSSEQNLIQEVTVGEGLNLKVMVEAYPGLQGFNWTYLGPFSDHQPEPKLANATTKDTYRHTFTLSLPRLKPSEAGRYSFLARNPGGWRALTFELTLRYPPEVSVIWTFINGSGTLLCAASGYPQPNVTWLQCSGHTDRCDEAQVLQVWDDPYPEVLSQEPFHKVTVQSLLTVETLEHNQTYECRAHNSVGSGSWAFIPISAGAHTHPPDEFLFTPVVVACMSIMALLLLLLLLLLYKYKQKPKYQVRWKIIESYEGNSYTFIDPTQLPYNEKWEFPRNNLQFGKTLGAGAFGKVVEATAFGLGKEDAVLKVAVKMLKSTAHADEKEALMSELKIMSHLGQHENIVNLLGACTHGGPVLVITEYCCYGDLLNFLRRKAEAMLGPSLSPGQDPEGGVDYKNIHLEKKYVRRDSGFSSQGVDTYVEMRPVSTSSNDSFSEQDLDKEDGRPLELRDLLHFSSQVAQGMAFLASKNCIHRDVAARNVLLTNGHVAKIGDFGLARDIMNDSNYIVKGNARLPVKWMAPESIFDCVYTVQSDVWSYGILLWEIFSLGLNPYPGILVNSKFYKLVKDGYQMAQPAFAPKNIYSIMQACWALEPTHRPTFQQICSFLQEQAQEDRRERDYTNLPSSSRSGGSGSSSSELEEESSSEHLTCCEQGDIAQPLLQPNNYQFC

[10] = biological target: Leucine-rich repeat serine/threonine-protein kinase 2 (Homo sapiens) (UniProt Q5S007); test: Inhibition of LRRK2 at 0.1 uM
Cytochrome P450 2D6 = Cytochrome P450 2D6 (Homo sapiens, UniProt P10635); test: Inhibition of CYP2D6; assay type: ADME
Cytochrome P450 2D6, sequence (P10635 whole entry): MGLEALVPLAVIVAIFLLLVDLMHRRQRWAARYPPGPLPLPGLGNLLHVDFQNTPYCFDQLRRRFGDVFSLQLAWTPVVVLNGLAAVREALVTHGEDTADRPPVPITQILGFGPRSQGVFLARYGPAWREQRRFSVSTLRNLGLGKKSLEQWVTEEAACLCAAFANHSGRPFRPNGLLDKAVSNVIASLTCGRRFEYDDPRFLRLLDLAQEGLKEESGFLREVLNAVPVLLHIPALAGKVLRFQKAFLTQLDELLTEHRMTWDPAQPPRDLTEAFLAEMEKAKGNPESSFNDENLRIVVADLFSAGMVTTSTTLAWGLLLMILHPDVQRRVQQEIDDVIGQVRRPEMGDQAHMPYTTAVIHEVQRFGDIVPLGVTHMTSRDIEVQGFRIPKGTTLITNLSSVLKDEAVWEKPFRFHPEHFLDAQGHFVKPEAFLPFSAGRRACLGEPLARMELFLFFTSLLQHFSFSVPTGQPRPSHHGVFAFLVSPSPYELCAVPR

Cytochrome P450 2C19 = Cytochrome P450 2C19 (Homo sapiens, UniProt P33261); test: Inhibition of CYP2C19; assay type: ADME
Cytochrome P450 2C19, sequence (P33261 whole entry): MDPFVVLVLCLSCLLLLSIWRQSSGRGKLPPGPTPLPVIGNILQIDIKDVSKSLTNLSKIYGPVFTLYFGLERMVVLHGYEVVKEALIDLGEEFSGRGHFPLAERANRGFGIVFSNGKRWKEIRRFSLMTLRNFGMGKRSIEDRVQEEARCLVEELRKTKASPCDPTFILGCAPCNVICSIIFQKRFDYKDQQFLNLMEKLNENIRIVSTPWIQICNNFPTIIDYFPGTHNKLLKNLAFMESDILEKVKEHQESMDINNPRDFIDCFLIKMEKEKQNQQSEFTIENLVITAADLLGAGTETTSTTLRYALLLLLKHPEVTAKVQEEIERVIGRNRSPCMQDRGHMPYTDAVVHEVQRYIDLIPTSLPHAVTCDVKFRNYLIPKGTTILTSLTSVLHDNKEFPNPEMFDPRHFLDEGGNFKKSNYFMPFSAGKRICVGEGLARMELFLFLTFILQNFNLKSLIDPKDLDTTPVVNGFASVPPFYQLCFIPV

Cytochrome P450 3A4 = Cytochrome P450 3A4 (Homo sapiens, UniProt P08684); test: Inhibition of CYP3A4; assay type: ADME
Cytochrome P450 3A4, sequence (P08684 whole entry): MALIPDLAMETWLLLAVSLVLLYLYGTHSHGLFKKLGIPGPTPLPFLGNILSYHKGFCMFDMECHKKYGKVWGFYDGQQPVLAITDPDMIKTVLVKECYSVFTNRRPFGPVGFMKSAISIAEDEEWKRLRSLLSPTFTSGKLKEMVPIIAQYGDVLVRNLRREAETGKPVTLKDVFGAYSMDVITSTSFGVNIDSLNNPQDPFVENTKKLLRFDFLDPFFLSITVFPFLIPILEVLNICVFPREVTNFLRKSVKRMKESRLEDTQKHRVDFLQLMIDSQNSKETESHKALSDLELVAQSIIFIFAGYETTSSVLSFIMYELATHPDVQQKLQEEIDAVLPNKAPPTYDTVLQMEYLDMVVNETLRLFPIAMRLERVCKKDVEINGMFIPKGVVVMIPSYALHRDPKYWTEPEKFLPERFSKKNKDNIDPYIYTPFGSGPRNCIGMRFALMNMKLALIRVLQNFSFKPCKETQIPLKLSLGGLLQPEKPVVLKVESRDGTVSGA

Cytochrome P450 2C9 = Cytochrome P450 2C9 (Homo sapiens, UniProt P11712); test: Inhibition of CYP2C9; assay type: ADME
Cytochrome P450 2C9, sequence (P11712 whole entry): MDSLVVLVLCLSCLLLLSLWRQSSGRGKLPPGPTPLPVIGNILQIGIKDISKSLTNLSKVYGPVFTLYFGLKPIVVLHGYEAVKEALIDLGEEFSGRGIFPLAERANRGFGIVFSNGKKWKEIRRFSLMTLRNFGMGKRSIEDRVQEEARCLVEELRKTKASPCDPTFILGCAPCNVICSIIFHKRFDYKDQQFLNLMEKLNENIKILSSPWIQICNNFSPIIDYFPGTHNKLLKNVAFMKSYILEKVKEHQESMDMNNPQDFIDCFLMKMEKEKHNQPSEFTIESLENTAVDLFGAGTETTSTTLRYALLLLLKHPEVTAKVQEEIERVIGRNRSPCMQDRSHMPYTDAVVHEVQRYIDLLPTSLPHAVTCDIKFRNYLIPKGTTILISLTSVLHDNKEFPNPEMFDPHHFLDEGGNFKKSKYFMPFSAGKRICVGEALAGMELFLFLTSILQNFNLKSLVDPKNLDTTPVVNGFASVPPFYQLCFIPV

Cytochrome P450 1A2 = biological target: T2, Cytochrome P450 1A2 (Homo sapiens, UniProt P05177); test: Inhibition of CYP1A2; assay type: ADME
T2 sequence (P05177 whole entry): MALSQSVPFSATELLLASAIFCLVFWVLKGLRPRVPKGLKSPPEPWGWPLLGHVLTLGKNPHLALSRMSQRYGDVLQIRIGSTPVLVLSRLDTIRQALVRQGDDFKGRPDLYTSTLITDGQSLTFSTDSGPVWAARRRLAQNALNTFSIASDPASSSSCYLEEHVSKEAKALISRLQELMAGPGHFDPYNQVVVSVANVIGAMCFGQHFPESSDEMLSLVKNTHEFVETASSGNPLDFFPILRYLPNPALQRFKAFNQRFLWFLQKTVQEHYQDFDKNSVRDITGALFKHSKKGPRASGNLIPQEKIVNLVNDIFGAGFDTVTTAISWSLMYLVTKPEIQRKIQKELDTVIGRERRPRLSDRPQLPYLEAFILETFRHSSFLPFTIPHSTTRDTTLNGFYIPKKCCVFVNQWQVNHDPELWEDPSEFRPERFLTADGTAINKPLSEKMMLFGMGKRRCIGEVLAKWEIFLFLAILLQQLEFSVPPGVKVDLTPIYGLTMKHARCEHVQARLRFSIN

[11] = Apparent permeability from apical to basal side of MDCK cells; assay type: ADME, cell-based, Canis lupus familiaris; conditions: dog
[12] = Aqueous solubility of the compound; assay type: physicochemical; conditions: buffer

T1 sequence (P23458 whole entry, the tested form may be a part): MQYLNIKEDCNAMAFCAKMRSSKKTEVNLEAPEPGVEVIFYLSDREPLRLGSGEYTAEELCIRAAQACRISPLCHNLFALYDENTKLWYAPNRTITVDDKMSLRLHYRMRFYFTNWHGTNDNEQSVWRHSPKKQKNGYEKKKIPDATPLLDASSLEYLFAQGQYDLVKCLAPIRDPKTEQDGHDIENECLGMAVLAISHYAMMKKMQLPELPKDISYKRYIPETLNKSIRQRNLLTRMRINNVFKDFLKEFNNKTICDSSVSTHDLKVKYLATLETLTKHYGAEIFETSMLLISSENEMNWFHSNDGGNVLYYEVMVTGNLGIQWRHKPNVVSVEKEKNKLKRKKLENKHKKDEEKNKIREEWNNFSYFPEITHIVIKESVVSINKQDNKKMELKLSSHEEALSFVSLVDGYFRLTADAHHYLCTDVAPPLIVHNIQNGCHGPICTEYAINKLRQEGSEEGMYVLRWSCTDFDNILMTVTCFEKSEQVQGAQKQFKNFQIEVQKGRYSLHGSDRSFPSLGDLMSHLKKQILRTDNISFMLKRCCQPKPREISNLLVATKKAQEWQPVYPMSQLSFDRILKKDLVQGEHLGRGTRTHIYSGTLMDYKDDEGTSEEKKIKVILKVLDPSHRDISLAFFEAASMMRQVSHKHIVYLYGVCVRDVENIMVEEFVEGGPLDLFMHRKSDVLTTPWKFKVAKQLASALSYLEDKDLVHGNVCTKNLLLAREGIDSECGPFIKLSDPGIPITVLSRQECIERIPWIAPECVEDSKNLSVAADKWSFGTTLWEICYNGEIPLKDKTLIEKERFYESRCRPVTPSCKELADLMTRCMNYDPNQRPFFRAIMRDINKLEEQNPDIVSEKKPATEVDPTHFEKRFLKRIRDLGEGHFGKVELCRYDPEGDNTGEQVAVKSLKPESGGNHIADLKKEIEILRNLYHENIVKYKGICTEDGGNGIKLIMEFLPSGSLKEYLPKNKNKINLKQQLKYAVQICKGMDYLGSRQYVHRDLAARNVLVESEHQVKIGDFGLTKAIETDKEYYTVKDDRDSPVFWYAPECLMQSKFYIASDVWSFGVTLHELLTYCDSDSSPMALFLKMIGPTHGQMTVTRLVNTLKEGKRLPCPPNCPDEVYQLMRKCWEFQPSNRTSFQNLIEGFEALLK

Row | Compound | EC50 [1] | Ratio Ki [2] | Ki [3] | other results
1 | Cn1ccc(CCc2nc3cnc4[nH]ccc4c3n2C2CCN(CCC#N)CC2)n1 | 2.6 µM | 7.6 | 0.013 µM | 
2 | CS(=O)(=O)NCc1nc2cnc3[nH]ccc3c2n1C1CC2CCC1O2 (racemic) | 4.2 µM | 8 | 0.028 µM | 
3 | CC(=O)NCc1nc2cnc3[nH]ccc3c2n1C1CC2CCC1C2 (racemic) | 0.16 µM | 8.4 | 0.003 µM | 
4 | CC(=O)NCc1nc2cnc3[nH]ccc3c2n1C1CCN(CCC#N)CC1 | > 3.8 µM | 5.4 |  | 
5 | CCCc1nc2cnc3[nH]ccc3c2n1C1CCN(CCC#N)CC1 | 0.275 µM | 2.1 | 0.0046 µM | 
6 | N#CCCN1CCC(n2c(C3CCC3)nc3cnc4[nH]ccc4c32)CC1 | 0.43 µM | 3.6 | 0.0043 µM | 
7 | CC(=O)NCc1nc2cnc3[nH]ccc3c2n1C1CCN(CC(F)(F)F)CC1 | 1.5 µM | 6.7 | 0.012 µM | 
8 | CCOC(=O)NCc1nc2cnc3[nH]ccc3c2n1C1CCN(CCC#N)CC1 | 0.625 µM | 3.6 | 0.0084 µM | 
9 | CS(=O)(=O)NCCc1nc2cnc3[nH]ccc3c2n1C1CCN(CCC#N)CC1 | > 6 µM | 7 | 0.0017 µM | 
10 | CC(=O)NCCc1nc2cnc3[nH]ccc3c2n1C1CCN(CCC#N)CC1 | > 6.5 µM | 5.6 | 0.0037 µM | 
11 | CS(=O)(=O)NCCc1nc2cnc3[nH]ccc3c2n1C1CC2CCC1C2 (racemic) | 0.05 µM | 10 | 0.0006 µM | 
12 | N#CCCN1CCC(n2c(CCC3CCCO3)nc3cnc4[nH]ccc4c32)CC1 (racemic) | 0.57 µM | 5.4 | 0.0087 µM | 
13 | N#CCCN1CCC(n2c(CCn3cccn3)nc3cnc4[nH]ccc4c32)CC1 | 1.8 µM | 2.6 | 0.014 µM | 
14 | N#CCCN1CCC(n2c(C3CC3)nc3cnc4[nH]ccc4c32)CC1 | 0.16 µM | 1.8 |  | 
15 | N#CCCN1CCC(n2c(CC3CCOCC3)nc3cnc4[nH]ccc4c32)CC1 | 2.6 µM | 4.8 | 0.043 µM | 
16 | CS(=O)(=O)NCc1nc2cnc3[nH]ccc3c2n1[C@@H]1C[C@H]2CC[C@@H]1C2 |  |  |  | bioavailability [4]: 79%; AUC [5]: 2.2 µM·h; half-life [6]: 1.5 h; Vd [7]: 4 L/kg; clearance [8]: 33 mL/min/kg; inhibition [9]: > 50%; inhibition [10]: > 50%; IC50 (Cytochrome P450 2D6): > 10 µM; IC50 (Cytochrome P450 2C19): > 10 µM; IC50 (Cytochrome P450 3A4): > 10 µM; IC50 (Cytochrome P450 2C9): > 10 µM; IC50 (Cytochrome P450 1A2): > 10 µM; Papp A→B [11]: 8.2 ×10⁻⁶ cm/s; solubility [12]: 71 µM (≈ 25.5 µg/mL)
17 | CC(C)c1nc2cnc3[nH]ccc3c2n1C1CCN(CCC#N)CC1 | 0.41 µM | 4.2 | 0.0091 µM | 
18 | N#CCCN1CCC(n2c(CC3CCCC3)nc3cnc4[nH]ccc4c32)CC1 | 2 µM | 4.5 | 0.016 µM | 
19 | CC(=O)NCCc1nc2cnc3[nH]ccc3c2n1C1CCCCC1 | 0.21 µM |  |  | 
20 | CC(C)CS(=O)(=O)NCc1nc2cnc3[nH]ccc3c2n1C1CCN(CCC#N)CC1 | 1.2 µM | 11 | 0.0054 µM | 
21 | N#CCCN1CCC(n2c(CC3CCCO3)nc3cnc4[nH]ccc4c32)CC1 (racemic) | 1.3 µM | 1.5 | 0.024 µM | 
